Experimental data: patent US9963444B2, “N-acylethanolamine hydrolyzing acid amidase (NAAA) inhibitors and their use thereof” (Northeastern University, priority 2014, dated 2018)
Where two headings read alike, the source gives them in different places.

Biological target: hNAAA (Homo sapiens (Human), UniProt Q02083)
Experiment: Fluorescence-based NAAA inhibition assay with fluorogenic substrate PAMCA;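 note: compound preincubated 15 min at room temperature with hNAAA, then PAMCA added at 5 µM, reacted 120 min at 37 °C, AMC release read by fluorescence (ex 360, em 460 nm)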
[1] = read-out: NAAA Inhibition IC50 μM, purified hNAAA, PAMCA 5 μM, pH 4.5

Sequence of hNAAA (Q02083 29-125): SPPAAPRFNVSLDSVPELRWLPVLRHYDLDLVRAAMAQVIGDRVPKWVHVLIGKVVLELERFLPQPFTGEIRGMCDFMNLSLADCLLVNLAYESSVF
Sequence of hNAAA (Q02083 126-359): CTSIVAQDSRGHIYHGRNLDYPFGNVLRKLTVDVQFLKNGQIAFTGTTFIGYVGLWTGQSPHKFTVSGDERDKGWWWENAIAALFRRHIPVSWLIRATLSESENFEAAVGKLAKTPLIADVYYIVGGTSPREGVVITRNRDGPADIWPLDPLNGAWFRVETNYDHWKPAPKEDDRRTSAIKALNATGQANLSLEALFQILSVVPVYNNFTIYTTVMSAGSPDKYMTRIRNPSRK
Procedure: For three point concentration inhibition assays with hNAAA the following procedure is used. […] These samples are allowed to incubate for 15 min at room temperature and then 10 μL of a PAMCA stock solution in DMSO (final PAMCA concentration [5 μM]) was added. After 5 minutes of agitation on a shaking plate, the reaction is allowed to proceed at 37° C. for 120 minutes, with fluorescence readings taken every 10 minutes at a wavelength of 460 nm (using an excitation wavelength of 360 nm) on a Synergy HT Plate Reader using Gen5 software from Bio-Tek. The enzyme activity is calculated by converting the relative fluorescence units to AMC formed, using a standard curve of AMC. […] The assay procedure used is the same as the three point assay. […] After 5 minutes of agitation on a shaking plate, the reaction is allowed to proceed at 37° C. for 120 minutes Inhibition constants are calculated using pro Fit software (Quantum Soft, Uetikon am See, Switzerland) and a Levenberg-Marquardt algorithm.
For three point concentration inhibition assays with hNAAA the following procedure is used. […] These samples are allowed to incubate for 15 min at room temperature and then 10 μL of a PAMCA stock solution in DMSO (final PAMCA concentration [5 μM]) was added. After 5 minutes of agitation on a shaking plate, the reaction is allowed to proceed at 37° C. for 120 minutes, with fluorescence readings taken every 10 minutes at a wavelength of 460 nm (using an excitation wavelength of 360 nm) on a Synergy HT Plate Reader using Gen5 software from Bio-Tek. The enzyme activity is calculated by converting the relative fluorescence units to AMC formed, using a standard curve of AMC.
The assay procedure used is the same as the three point assay. […] After 5 minutes of agitation on a shaking plate, the reaction is allowed to proceed at 37° C. for 120 minutes. Inhibition constants are calculated using pro Fit software (Quantum Soft, Uetikon am See, Switzerland) and a Levenberg-Marquardt algorithm.

Row | Compound | IC50 [1] | IC50
1 | S=C=NCCCCc1ccccc1 [Example 1, (4-isothiocyanatobutyl)benzene] | > 1 µM | 
2 | S=C=NCCCCCc1ccccc1 [Example 2, (5-Isothiocyanatopentyl)benzene] | > 1 µM | 
3 | S=C=NCCCCCCCCc1ccccc1 [Example 3, (8-Isothiocyanatooctyl)benzene] | > 1 µM | 
4 | S=C=NCCCCCCCc1ccc2ccccc2c1 [Example 5, 2-(7-Isothiocyanatoheptyl)naphthalene] | > 1 µM | 
5 | CCCCCCCCCCCCCCCC(=O)NCCN=C=S [Example 6, N-(2-isothiocyanatoethyl)palmitamide] | > 1 µM | 
6 | O=C(CCCCCCc1ccc2ccccc2c1)NCCN=C=S [Example 7, N-(2-Isothiocyanatoethyl)-7-(naphthalene-2-yl)heptanamide] | > 1 µM | 
7 | S=C=Nc1ccc(Cc2ccncc2)cc1 [Example 8, 4-(4-Isothiocyanatobenzyl)pyridine] | > 1 µM | 
8 | S=C=NCCN1CCN(Cc2ccccc2)CC1 [Example 9, 1-Isothiocyanato-2-(4-benzylpiperazino)ethane] | > 1 µM | 
9 | S=C=NCc1ccc(N2CCOCC2)cc1 [Example 10, 4-(4-(Isothiocyanatomethyl)phenyl)morpholine] | > 1 µM | 
10 | S=C=NCCN1CCC(Cc2ccccc2)CC1 [Example 11, 4-Benzyl-1-(2-isothiocyanatoethyl)piperidine] | > 1 µM | 
11 | S=C=NCc1ccc(CN2CCOCC2)cc1 [Example 12, 4-(Morpholinomethyl)benzylisothiocyanate] | > 1 µM | 
12 | O=C(OCc1ccccc1)N1CCC(CN=C=S)CC1 [Example 13, Benzyl 4-(isothiocyanatomethyl)tetrahydro-1(2H)-pyridinecarboxylate] | > 1 µM | 
13 | Cc1cncc(Oc2ccc(CN=C=S)cc2)n1 [Example 14, 2-(4-(Isothiocyanatomethyl)phenoxy)-6-methylpyrazine] | > 1 µM | 
14 | S=C=NCc1ccc(COc2ccccc2)cc1 [Example 15, 1-(Isothiocyanatomethyl)-4-(phenoxymethyl)benzene] | > 1 µM | 
15 | FC(F)(F)c1ccccc1CCCCCCCCCCN=C=S [Example 16, 1-(10-Isothiocyanatodecyl)-2-(trifluoromethyl)benzene] | > 1 µM | 
16 | COc1ccc(CCCCCCCCCCN=C=S)cc1 [Example 17, 1-(10-Isothiocyanatodecyl)-4-methoxybenzene] | > 1 µM | 
17 | S=C=NCCCCCCCCCCc1ccccn1 [Example 18, 2-(10-Isothiocyanatodecyl)pyridine] |  | 0.01 to 0.1 µM
18 | S=C=NCCCCCCCCCCc1ccncc1 [Example 19, 4-(10-Isothiocyanatodecyl)pyridine] |  | 0.01 to 0.1 µM
19 | S=C=NCCCCCCCCCCc1ncccn1 [Example 20, 2-(10-Isothiocyanatodecyl)pyrimidine] |  | 0.01 to 0.1 µM
20 | S=C=NCCCCCCCCCCCc1ccccc1 [Example 21, (11-Isothiocyanatoundecyl)benzene] |  | 0.01 to 0.1 µM
21 | S=C=NCCCCCCCCCc1ccccc1 [Example 22, (9-Isothiocyanatononyl)benzene] |  | 0.01 to 0.1 µM
22 | S=C=NCCOCCOCCOCc1ccccc1 [Example 23, ((2-(2-(2-Isothiocyanatoethoxy)ethoxy)ethoxy)methyl)benzene] |  | 0.01 to 0.1 µM
23 | S=C=NCCCOCc1cccc(-c2ccccc2)c1 [Example 24, 3-((3-Isothiocyanatopropoxy)methyl)-1,1′-biphenyl] |  | 0.01 to 0.1 µM
24 | S=C=NCCCOCc1ccc(-c2ccccc2)cc1 [Example 25, 4-((3-Isothiocyanatopropoxy)methyl)-1,1′-biphenyl] |  | 0.01 to 0.1 µM
25 | S=C=NCCCOCc1ccc(Oc2ccccc2)cc1 [Example 26, 1((3-Isothiocyanatopropoxy)methyl)-4-phenoxybenzene] |  | 0.01 to 0.1 µM
26 | S=C=NCCCCCN1CCC(Cc2ccccc2)CC1 [Example 27, 4-Benzyl-1-(5-isothiocyanatopentyl)piperidine] |  | 0.01 to 0.1 µM

Row | Compound | IC50 [1] | IC50
27 | Cc1ccc(-c2ccc(CO[C@H]3C[C@H](N=C=S)C3)cc2)cc1 [Example 28, 4-(((1R,3R)-3-Isothiocyanatocyclobutoxy)methyl)-4′-methyl-1,1′-biphenyl] |  | 0.11 to 1 µM
28 | Cc1ccc(-c2ccc(CO[C@H]3C[C@@H](N=C=S)C3)cc2)cc1 [Example 29, 4-(((1S,3S)-3-Isothiocyanatocyclobutoxy)methyl)-4′-methyl-1,1′-biphenyl] |  | 0.01 to 0.1 µM
29 | S=C=N[C@H]1C[C@H](OCc2ccc(-c3ccccc3)cc2)C1 [Example 30, 4-(((1R,3R)-3-isothiocyanatocyclobutoxy)methyl)-1,1′-biphenyl] | > 1 µM | 
30 | S=C=N[C@H]1C[C@@H](OCc2ccc(-c3ccccc3)cc2)C1 [Example 31, 4-(((1S,3S)-3-isothiocyanatocyclobutoxy)methyl)-1,1′-biphenyl] |  | 0.11 to 1 µM
31 | Fc1ccc(-c2ccc(CO[C@H]3C[C@@H](N=C=S)C3)c(F)c2)cc1 [Example 32, 3,4′-Difluoro-4-(((1S,3S)-3-isothiocyanatocyclobutoxy)methyl)-1,1′-biphenyl] |  | 0.11 to 1 µM
32 | COc1ccc(-c2ccc(CO[C@H]3C[C@@H](N=C=S)C3)c(F)c2)cc1F [Example 33, 3,3′-Difluoro-4-(((1S,3S)-3-isothiocyanatocyclobutoxy)methyl)-4′-methoxy-1,1′-biphenyl] |  | 0.01 to 0.1 µM
33 | COc1cccc(-c2ccc(CO[C@H]3C[C@H](N=C=S)C3)cc2)c1 [Example 34, 4′-(((1R,3R)-3-isothiocyanatocyclobutoxy)methyl)-3-methoxy-1,1′-biphenyl] | > 1 µM | 
34 | COc1cccc(-c2ccc(CO[C@H]3C[C@@H](N=C=S)C3)cc2)c1 [Example 35, 4′-(((1S,3S)-3-isothiocyanatocyclobutoxy)methyl)-3-methoxy-1,1′-biphenyl] |  | 0.01 to 0.1 µM
35 | CCOc1ccc(-c2ccc(CO[C@H]3C[C@@H](N=C=S)C3)c(F)c2)cc1F [Example 36, 4-Ethoxy-3,3′-difluoro-4′-(((1S,3S)-3-isothiocyanatocyclobutoxy)methyl)-1,1′-biphenyl] |  | 0.01 to 0.1 µM
36 | CC(C)Oc1ccc(-c2ccc(CO[C@H]3C[C@@H](N=C=S)C3)c(F)c2)cc1F [Example 37, 3,3′-Difluoro-4-isopropoxy-4′-(((1S,3S)-3-isothiocyanatocyclobutoxy)methyl)-1,1′-biphenyl] |  | 0.11 to 1 µM
37 | Fc1cc(-c2ccc3c(c2)OCCO3)ccc1CO[C@H]1C[C@@H](N=C=S)C1 [Example 38, 6-(3-Fluoro-4-(((1S,3S)-3-isothiocyanatocyclobutoxy)methyl)phenyl)-2,3-dihydrobenzo[b][1,4]dioxine] |  | 0.01 to 0.1 µM
38 | Fc1cc(-c2ccc3c(c2)OCO3)ccc1CO[C@H]1C[C@@H](N=C=S)C1 [Example 39, 5-(3-Fluoro-4-(((1S,3S)-3-isothiocyanatocyclobutoxy)methyl)phenyl)benzo[d][1,3]dioxole] |  | 0.01 to 0.1 µM
39 | COc1ccc(-c2ccc(CO[C@H]3C[C@@H](N=C=S)C3)c(F)c2)cc1OC [Example 40, 3-Fluoro-4-(((1S,3S)-3-isothiocyanatocyclobutoxy)methyl)-3′,4′-dimethoxy-1,1′-biphenyl] |  | 0.01 to 0.1 µM
40 | COc1ncccc1-c1ccc(COC2CC(N=C=S)C2)c(F)c1 [Example 41, 3-(3-Fluoro-4-(((1R,3R)-3-isothiocyanatocyclobutoxy)methyl)phenyl)-2-methoxypyridine] | 0.11 to 1 µM | 
41 | COc1ccc(-c2ccc(COC3CC(N=C=S)C3)nc2)cc1F [Example 42, 5-(3-Fluoro-4-methoxyphenyl)-2-(((1R,3R)-3-isothiocyanatocyclobutoxy)methyl)pyridine] | 0.01 to 0.1 µM | 
42 | COc1ccc(-c2ccc(F)c(CO[C@H]3C[C@@H](N=C=S)C3)c2)cc1F [Example 43, 3,4′-Difluoro-3′-(((1S,3S)-3-isothiocyanatocyclobutoxy)methyl)-4-methoxy-1,1′-biphenyl] | > 1 µM | 
43 | Fc1cc(Br)ccc1COC1CC(N=C=S)C1 [Example 44, 4-Bromo-2-fluoro-1-(((1R,3R)-3-isothiocyanatocyclobutoxy)methyl)benzene] | 0.11 to 1 µM | 
44 | Cc1noc(C)c1-c1ccc(COC2CC(N=C=S)C2)c(F)c1 [Example 45, 4-(3-Fluoro-4-(((1R,3R)-3-isothiocyanatocyclobutoxy)methyl)phenyl)-3,5-dimethylisoxazole] | > 1 µM | 
45 | Cn1cc(-c2ccc(COC3CC(N=C=S)C3)c(F)c2)cn1 [Example 46, 4-(3-Fluoro-4-(((1R,3R)-3-isothiocyanatocyclobutoxy)methyl)phenyl)-1-methyl-1H-pyrazole] | 0.11 to 1 µM | 
46 | Fc1cc(-c2cccc(C(F)(F)F)c2)ccc1COC1CC(N=C=S)C1 [Example 47, 3-Fluoro-4-(((1R,3R)-3-isothiocyanatocyclobutoxy)methyl)-3′-(trifluoromethyl)-1,1′-biphenyl] | 0.01 to 0.1 µM | 
47 | Fc1cc(-c2cccc(OCc3ccccc3)c2)ccc1COC1CC(N=C=S)C1 [Example 48, 3′-(Benzyloxy)-3-fluoro-4-(((1R,3R)-3-isothiocyanatocyclobutoxy)methyl)-1,1′-biphenyl] | 0.01 to 0.1 µM | 
48 | S=C=N[C@H]1C[C@@H](OCc2ccc(Oc3ccccc3)cc2Br)C1 [Example 49, 2-Bromo-1-(((1S,3S)-3-isothiocyanatocyclobutoxy)methyl)-4-phenoxybenzene] |  | 0.11 to 1 µM
49 | S=C=N[C@H]1C[C@@H](OCc2ccc(Oc3ccccc3)cc2-c2ccccc2)C1 [Example 50, 2-(((1S,3S)-3-Isothiocyanatocyclobutoxy)methyl)-5-phenoxy-1,1′-biphenyl] | > 1 µM | 
50 | COc1ccc(-c2ccc(O[C@H]3C[C@H](N=C=S)C3)cc2)cc1F [Example 51, 3-Fluoro-4′-((1R,3R)-3-isothiocyanatocyclobutoxy)-4-methoxy-1,1′-biphenyl] |  | 0.01 to 0.1 µM
51 | COc1ccc(-c2ccc(O[C@H]3C[C@@H](N=C=S)C3)cc2)cc1F [Example 52, 3-Fluoro-4′-((1S,3S)-3-isothiocyanatocyclobutoxy)-4-methoxy-1,1′-biphenyl] |  | 0.01 to 0.1 µM
52 | CN(Cc1ccc(-c2ccccc2)cc1)C1CC(N=C=S)C1 [Example 53, (1R,3R)—N-([1,1′-Biphenyl]-4-ylmethyl)-3-isothiocyanato-N-methylcyclobutan-1-amine] | > 1 µM | 
